# Source: PubChem BioAssay AID330 (DTP/NCI, 2004)
# Several values for one entry are separate records, joined by “and”; a condition that tells them apart may be missing. Equal entries are not always repeated. Toxic doses and inconclusive results are not listed.
# Test system: P388 leukemia ip, CD2F1 mice, survival T/C
# Experiment: NCI In Vivo Anticancer Drug Screen. Data for tumor model P388 Leukemia (intraperitoneal) in CD2F1 (CDF1) mice
# Details: endpoint: median survival time, higher = longer survival
# How it was run: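 Mice carrying the transplanted tumor received test compound or vehicle. Survival was recorded in each group, and the value is the treated-group measurement divided by that of the vehicle-treated control group.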
# [1] = dose: 50.0 mg/kg/injection, schedule: Q01DX009 (ip), vehicle: saline
# [2] = dose: 50.0 mg/kg/injection, schedule: Q01DX009 (ip), vehicle: suspension in saline
# [3] = dose: 100.0 mg/kg/injection, schedule: Q01DX009 (ip), vehicle: suspension in saline
# [4] = dose: 200.0 mg/kg/injection, schedule: Q01DX009 (ip), vehicle: saline
# [5] = dose: 25.0 mg/kg/injection, schedule: Q01DX009 (ip), vehicle: saline with Tween-80
# [6] = dose: 50.0 mg/kg/injection, schedule: Q01DX009 (ip), vehicle: saline with Tween-80
# [7] = dose: 50.0 mg/kg/injection, schedule: Q01DX005 (ip), vehicle: saline with Tween-80
# [8] = dose: 100.0 mg/kg/injection, schedule: Q01DX005 (ip), vehicle: saline with Tween-80
# [9] = dose: 200.0 mg/kg/injection, schedule: Q01DX005 (ip), vehicle: saline with Tween-80
# [10] = dose: 6.25 mg/kg/injection, schedule: Q01DX009 (ip), vehicle: saline with Tween-80
# [11] = dose: 12.5 mg/kg/injection, schedule: Q01DX009 (ip), vehicle: saline with Tween-80
# [12] = dose: 100.0 mg/kg/injection, schedule: Q01DX009 (ip), vehicle: saline with Tween-80
# [13] = dose: 200.0 mg/kg/injection, schedule: Q01DX009 (ip), vehicle: saline with Tween-80
# [14] = dose: 100.0 mg/kg/injection, schedule: Q01DX009 (ip), vehicle: saline
# [15] = dose: 25.0 mg/kg/injection, schedule: Q01DX005 (ip), vehicle: saline
# [16] = dose: 50.0 mg/kg/injection, schedule: Q01DX005 (ip), vehicle: saline
# [17] = dose: 60.0 mg/kg/injection, schedule: Q01DX005 (ip), vehicle: saline with Tween-80
# [18] = dose: 120.0 mg/kg/injection, schedule: Q01DX005 (ip), vehicle: saline with Tween-80
# [19] = dose: 240.0 mg/kg/injection, schedule: Q01DX005 (ip), vehicle: saline with Tween-80
# [20] = dose: 60.0 mg/kg/injection, schedule: Q01DX005 (ip), vehicle: Klucel (hydroxypropylcellulose) (HPC)
# [21] = dose: 120.0 mg/kg/injection, schedule: Q01DX005 (ip), vehicle: Klucel (hydroxypropylcellulose) (HPC)
# [22] = dose: 240.0 mg/kg/injection, schedule: Q01DX005 (ip), vehicle: Klucel (hydroxypropylcellulose) (HPC)
structure (smiles),measurement,setting,value
Cc1ccc(CCNC(=O)c2c3nc4c(C(=O)NCCc5ccc(C)cc5)ccc(C)c4oc-3c(C)c(=O)c2N)cc1,T/C,"dose: 25.0 mg/kg/injection, schedule: Q04DX003 (ip), vehicle: DMSO",98 % of control
same,T/C,"dose: 50.0 mg/kg/injection, schedule: Q04DX003 (ip), vehicle: DMSO",99 % of control
same,T/C,"dose: 100.0 mg/kg/injection, schedule: Q04DX003 (ip), vehicle: DMSO",91 % of control
O=C(O)C1=Cc2ccccc2OC1,T/C,"dose: 100.0 mg/kg/injection, schedule: Q04DX003 (ip), vehicle: Klucel (hydroxypropylcellulose) (HPC)",101 % of control
same,T/C,"dose: 200.0 mg/kg/injection, schedule: Q04DX003 (ip), vehicle: Klucel (hydroxypropylcellulose) (HPC)",107 % of control
same,T/C,"dose: 400.0 mg/kg/injection, schedule: Q04DX003 (ip), vehicle: Klucel (hydroxypropylcellulose) (HPC)",105 % of control
CC1CCC(C)(C(O)c2ccc(C(O)C3(C)CCC(C)C3(C)C)cc2)C1(C)C (stereo unspecified),T/C,[1],86 % of control
same,T/C,[2],92 % of control
same,T/C,[3],91 % of control
same,T/C,[4],89 % of control
Nc1cn(C2OC(CO)C(O)C2O)c(=O)[nH]c1=O (stereo unspecified),T/C,[5],95 % of control
same,T/C,[6],92 % of control
COc1cccc(OC)c1C(=O)Nc1cccc(NC(=O)c2c(OC)cccc2OC)n1,T/C,[7],95 % of control
same,T/C,[8],93 % of control
same,T/C,[9],93 % of control
COc1cc(NCCCCCNC(C)(C)C)c2ncccc2c1,T/C,"dose: 12.5 mg/kg/injection, schedule: Q01DX005 (ip), vehicle: saline with Tween-80",98 % of control
same,T/C,"dose: 25.0 mg/kg/injection, schedule: Q01DX005 (ip), vehicle: saline with Tween-80",98 % of control
same,T/C,[7],100 % of control and 103 % of control
S=c1cc(-c2ccccc2)c(-c2ccccc2)c(-c2ccccc2)s1,T/C,"dose: 100.0 mg/kg/injection, schedule: Q01DX001 (ip), vehicle: saline with Tween-80",91 % of control
same,T/C,"dose: 200.0 mg/kg/injection, schedule: Q01DX001 (ip), vehicle: saline with Tween-80",94 % of control
CCOC1N(c2ccccc2)CN(C2CCCCC2)CC1(C)C (stereo unspecified),T/C,[10],100 % of control
same,T/C,[11],98 % of control
same,T/C,[5],102 % of control
CCOC(=O)c1c(C)cc2c(CO)n[nH]c(=O)c2c1C,T/C,[6],102 % of control
same,T/C,[12],100 % of control
same,T/C,[13],99 % of control
COc1c(OC(C)=O)c(OC(C)=O)cc2c1-c1ccc(SC)c(=O)cc1C(NC(C)=O)CC2 (stereo unspecified),T/C,"dose: 1.25 mg/kg/injection, schedule: Q01DX009 (ip), vehicle: Klucel (hydroxypropylcellulose) (HPC)",118 % of control
same,T/C,"dose: 5.0 mg/kg/injection, schedule: Q01DX009 (ip), vehicle: Klucel (hydroxypropylcellulose) (HPC)",150 % of control
same,T/C,"dose: 10.0 mg/kg/injection, schedule: Q01DX009 (ip), vehicle: Klucel (hydroxypropylcellulose) (HPC)",169 % of control and 185 % of control
same,T/C,"dose: 20.0 mg/kg/injection, schedule: Q01DX009 (ip), vehicle: Klucel (hydroxypropylcellulose) (HPC)",178 % of control
O=[N+]([O-])c1ccc(N2CC2)c2c1no[n+]2[O-],T/C,"dose: 7.5 mg/kg/injection, schedule: Q04DX003 (ip), vehicle: saline with Tween-80",101 % of control
same,T/C,"dose: 15.0 mg/kg/injection, schedule: Q04DX003 (ip), vehicle: saline with Tween-80",99 % of control
same,T/C,"dose: 30.0 mg/kg/injection, schedule: Q04DX003 (ip), vehicle: saline with Tween-80",100 % of control
same,T/C,"dose: 60.0 mg/kg/injection, schedule: Q04DX003 (ip), vehicle: saline with Tween-80",100 % of control
CN(C)c1ccc(/C=C/c2ccc3ccccc3[n+]2C)cc1,T/C,"dose: 1.0 mg/kg/injection, schedule: Q01DX009 (ip), vehicle: saline sonified",123 % of control
same,T/C,"dose: 1.5 mg/kg/injection, schedule: Q01DX009 (ip), vehicle: saline sonified",123 % of control
same,T/C,"dose: 2.3 mg/kg/injection, schedule: Q01DX009 (ip), vehicle: saline sonified",119 % of control
same,T/C,"dose: 6.25 mg/kg/injection, schedule: Q04DX003 (ip), vehicle: saline sonified",100 % of control
same,T/C,"dose: 12.5 mg/kg/injection, schedule: Q04DX003 (ip), vehicle: saline sonified",109 % of control
same,T/C,"dose: 25.0 mg/kg/injection, schedule: Q04DX003 (ip), vehicle: saline sonified",113 % of control
C[n+]1ccn(Cc2ccc([N+](=O)[O-])cc2)c1,T/C,[1],115 % of control
same,T/C,[14],102 % of control
CC(=O)c1c(O)c(C)c(C)c2c1OC(=O)C2C (stereo unspecified),T/C,"dose: 3.12 mg/kg/injection, schedule: Q01DX009 (ip), vehicle: saline with Tween-80",109 % of control
same,T/C,[10],116 % of control
same,T/C,[11],108 % of control
C[N+](C)([O-])CC1CC=CCC1C[N+](C)(C)[O-] (stereo unspecified),T/C,[15],99 % of control
same,T/C,[16],106 % of control
same,T/C,"dose: 100.0 mg/kg/injection, schedule: Q01DX005 (ip), vehicle: saline",91 % of control
FC(F)(F)C[P+](c1ccccc1)(c1ccccc1)c1ccccc1,T/C,"dose: 12.5 mg/kg/injection, schedule: Q01DX001 (ip), vehicle: saline",100 % of control and 109 % of control
same,T/C,"dose: 25.0 mg/kg/injection, schedule: Q01DX001 (ip), vehicle: saline",108 % of control and 117 % of control
same,T/C,"dose: 50.0 mg/kg/injection, schedule: Q01DX001 (ip), vehicle: saline",104 % of control
COC1=C(NC(C)=O)C(=O)c2nc(-c3nc(C(=O)O)c(C)c(-c4ccc(OC)c(OC)c4O)c3N)ccc2C1=O,T/C,"dose: 12.5 mg/kg/injection, schedule: Q01DX009 (ip), vehicle: distilled water + Tween-80",119 % of control
same,T/C,"dose: 25.0 mg/kg/injection, schedule: Q01DX009 (ip), vehicle: distilled water + Tween-80",118 % of control
same,T/C,"dose: 50.0 mg/kg/injection, schedule: Q01DX009 (ip), vehicle: distilled water + Tween-80",119 % of control
same,T/C,"dose: 100.0 mg/kg/injection, schedule: Q01DX009 (ip), vehicle: distilled water + Tween-80",119 % of control
O=S(=O)(CCl)NCCCl,T/C,[6],100 % of control
same,T/C,[12],106 % of control
same,T/C,[13],106 % of control
C[SiH](C)c1ccc(Cl)cc1,T/C,[1],99 % of control
same,T/C,[14],102 % of control
same,T/C,[4],100 % of control
CCC1c2ccccc2[C@H]2C(c3ccccc3)=NN(c3ccccc3)[C@H]2N1CC (stereo partly specified),T/C,[7],100 % of control
same,T/C,[8],92 % of control
same,T/C,[9],90 % of control
CCCN(CCC)C1=CC(=O)C(N(CCC)CCC)=CC1=O,T/C,"dose: 50.0 mg/kg/injection, schedule: Q01DX005 (ip), vehicle: Klucel (hydroxypropylcellulose) (HPC)",117 % of control
same,T/C,"dose: 100.0 mg/kg/injection, schedule: Q01DX005 (ip), vehicle: Klucel (hydroxypropylcellulose) (HPC)",89 % of control
COc1ccc2nc(Cl)c(Br)c(C)c2c1,T/C,[17],95 % of control
same,T/C,[18],92 % of control
same,T/C,[19],90 % of control
S=c1nc(Oc2ccc(-c3ccccc3)cc2)[nH]c(=S)[nH]1,T/C,[17],87 % of control
same,T/C,[18],92 % of control
same,T/C,[19],97 % of control
CCN(CC)CCSCCCNc1cc(OC)cc2cccnc12,T/C,"dose: 12.5 mg/kg/injection, schedule: Q01DX005 (ip), vehicle: saline",93 % of control
same,T/C,[15],88 % of control
same,T/C,[16],95 % of control and 98 % of control
Cc1cc2nc3ccc(=[N+](C)C)cc-3sc2cc1N,T/C,"dose: 25.0 mg/kg/injection, schedule: Q04DX003 (ip), vehicle: saline",100 % of control and 108 % of control
same,T/C,"dose: 50.0 mg/kg/injection, schedule: Q04DX003 (ip), vehicle: saline",117 % of control and 91 % of control
same,T/C,"dose: 100.0 mg/kg/injection, schedule: Q04DX003 (ip), vehicle: saline",109 % of control and 123 % of control
S=C(Nc1cc(Cl)c(Cl)cc1Cl)SCc1ccccc1,T/C,[2],93 % of control
same,T/C,[3],93 % of control
CCOC(=O)c1cnc2cc3c(cc2c1Nc1cccc(Cl)c1)OCO3,T/C,[20],105 % of control
same,T/C,[21],95 % of control
same,T/C,[22],108 % of control
O=C(O)c1cnc2cc3c(cc2c1Nc1cccc(Cl)c1)OCO3,T/C,[20],93 % of control
same,T/C,[21],105 % of control
same,T/C,[22],106 % of control
